Assays:
Experiment in all cases: Bliss excess, mean over the matrix (fraction); higher = more synergy
[1] = test system: RF-48 (B-Cell Non-Hodgkin's Lymphoma)
Procedure, shortened: (§1)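 Bliss excess equals the observed combination effect minus the expected value EA + EB − EA·EB, where EA and EB are the effects of each agent alone. Combination Emax is the second-highest inhibition within the matrix. Inhibition was scaled from CellTiter-Glo 2.0 luminescence, with 0 set by vehicle wells and 1 by blank wells, after 72 hours of two-drug dosing of cells plated in 1536-well plates.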

[2] = test system: NB69 (Neuroblastoma)
Procedure, shortened: as §1

[3] = test system: SW13 (Other Solid Carcinomas)
Procedure, shortened: as §1

[4] = test system: C-4-I (Cervical Carcinoma)
Procedure, shortened: as §1

[5] = test system: OE19 (Esophageal Adenocarcinoma)
Procedure, shortened: as §1

[6] = test system: TK10 (Kidney Carcinoma)
Procedure, shortened: as §1

[7] = test system: SCC-15 (Oral Cavity Carcinoma)
Procedure, shortened: as §1

[8] = test system: SU8686 (Pancreatic Carcinoma)
Procedure, shortened: as §1

[9] = test system: HSC-4 (Oral Cavity Carcinoma)
Procedure, shortened: as §1

[10] = test system: PANC-04-03 (Pancreatic Carcinoma)
Procedure, shortened: as §1

[11] = test system: AMO-1 (Plasma Cell Myeloma)
Procedure, shortened: as §1

[12] = test system: TE-1 (Esophageal Squamous Cell Carcinoma)
Procedure, shortened: as §1

[13] = test system: NEC8 (Other Solid Carcinomas)
Procedure, shortened: as §1

[14] = test system: ACHN (Kidney Carcinoma)
Procedure, shortened: as §1

[15] = test system: OVCAR-4 (Ovarian Carcinoma)
Procedure, shortened: as §1

[16] = test system: UACC-62 (Melanoma)
Procedure, shortened: as §1

[17] = test system: NCI-H358 (Lung Adenocarcinoma)
Procedure, shortened: as §1

[18] = test system: HGC-27 (Gastric Carcinoma)
Procedure, shortened: as §1

[19] = test system: Ca9-22 (Head and Neck Carcinoma)
Procedure, shortened: as §1

[20] = test system: NCI-H1915 (Non-Small Cell Lung Carcinoma)
Procedure, shortened: as §1

Compound | Bliss excess [1] | Bliss excess [2] | Bliss excess [3] | Bliss excess [4] | Bliss excess [5] | Bliss excess [6] | Bliss excess [7] | Bliss excess [8] | Bliss excess [9] | Bliss excess [10] | Bliss excess [11] | Bliss excess [12] | Bliss excess [13] | Bliss excess [14] | Bliss excess [15] | Bliss excess [16] | Bliss excess [17] | Bliss excess [18] | Bliss excess [19] | Bliss excess [20]
COc1cccc(OCCCN)c1-c1cc(Nc2cnc(C#N)cn2)n[nH]1 [Prexasertib] + Cc1cc2ncnn2cc1Nc1ncc2c(n1)n(C1CCOCC1)c(=O)n2C [AZD7648] (first compound max 1 µM, 7x7, partner max 10 µM) | -0.0549 | 0.0182 | 0.0009 | 0.0005 | -0.0291 | 0.0053 | -0.0065 | -0.0227 | -0.0421 | -0.0327 | -0.004 | -0.0266 | 0 | -0.0182 | -0.0739 | -0.0125 | -0.0438 | -0.0235 | -0.0231 | -0.008
COc1cccc(OCCCN)c1-c1cc(Nc2cnc(C#N)cn2)n[nH]1 [Prexasertib] + O=C(c1cc(Cc2n[nH]c(=O)c3ccccc23)ccc1F)N1CCN(C(=O)C2CC2)CC1 [Olaparib] (first compound max 1 µM, 7x7, partner max 10 µM) | -0.0216 | -0.0313 | 0.0024 | -0.0783 | -0.125 | -0.0975 | 0.0242 | -0.0504 | 0.029 | -0.0415 | -0.0584 | -0.11 | 0.0104 | -0.0857 | -0.0589 | -0.0183 | -0.0809 | 0.044 | -0.007 | -0.0002
CCc1c2c(nc3ccc(O)cc13)-c1cc3c(c(=O)n1C2)COC(=O)[C@]3(O)CC [SN-38] + CN(C)CCCOc1ccc(-c2ccc3ncc4c(c3c2)n(C2CCOCC2)c(=O)n4C)cn1 [AZD0156] (first compound max 0.3 µM, 7x7, partner max 1 µM) | -0.0098 | 0.0106 | 0.0279 | 0.115 | 0.159 | 0.028 | 0.0092 | -0.0327 | -0.0346 | -0.0226 | -0.103 | 0.0182 | -0.0228 | -0.0134 | -0.0149 | 0.0077 | 0.0282 | 0.077 | 0.0332 | -0.0563
Cn1cnc2c(F)c(Nc3ccc(Br)cc3Cl)c(C(=O)NOCCO)cc21 [Selumetinib] + C=CCn1c(=O)c2cnc(Nc3ccc(N4CCN(C)CC4)cc3)nc2n1-c1cccc(C(C)(C)O)n1 [AZD1775] (first compound max 10 µM, partner max 1 µM) | -0.0372 | -0.0004 | -0.0576 | 0.0083 | -0.132 | -0.0412 | -0.075 | -0.0089 | -0.041 | -0.0351 | -0.0108 | -0.0277 | 0.0185 | -0.0527 | -0.0698 | -0.0006 | -0.0471 | -0.052 | 0.0321 | -0.0462
Cn1cnc2c(F)c(Nc3ccc(Br)cc3Cl)c(C(=O)NOCCO)cc21 [Selumetinib] + CC(C)n1c(=O)n(C)c2cnc3cc(F)c(-c4ccc(OCCCN5CCCCC5)nc4)cc3c21 [AZD1390] (first compound max 10 µM, 7x7, partner max 0.3 µM) | -0.056 | -0.0538 | 0.0129 | -0.0078 | -0.0326 | -0.0336 | -0.0462 | -0.0255 | -0.085 | -0.0287 | 0.0291 | 0.0347 | -0.0268 | 0.0389 | -0.0512 | -0.0092 | -0.03 | -0.0129 | 0.0337 | -0.061
Cn1cnc2c(F)c(Nc3ccc(Br)cc3Cl)c(C(=O)NOCCO)cc21 [Selumetinib] + CCN(CCO)CCCOc1ccc2c(Nc3cc(CC(=O)Nc4cccc(F)c4)[nH]n3)ncnc2c1 [AZD2811] (first compound max 10 µM, 7x7, partner max 1 µM) | -0.0305 | -0.0155 | -0.0919 | 0.0582 | -0.0015 | -0.0589 | -0.0377 | -0.0179 | -0.0442 | -0.0339 | 0.0538 | 0.0378 | -0.0166 | 0.0086 | -0.0468 | -0.0289 | -0.0743 | -0.0515 | 0.0241 | -0.038
Cn1cnc2c(F)c(Nc3ccc(Br)cc3Cl)c(C(=O)NOCCO)cc21 [Selumetinib] + C[C@@H]1COCCN1C2=NC(=NC(=C2)C3(CC3)[S@](=N)(=O)C)C4=C5C=CNC5=NC=C4 [AZD6738] (first compound max 10 µM, 7x7, partner max 10 µM) | -0.0651 | -0.0029 | 0.0113 | 0.0615 | -0.049 | -0.0373 | -0.0142 | -0.0168 | 0.0345 | 0.0023 | -0.0261 | -0.0229 | -0.0014 | -0.0415 | 0.0169 | 0.063 | -0.0816 | -0.0513 | -0.0197 | -0.0264
CC(=O)Nc1cccc(-n2c(=O)n(C3CC3)c(=O)c3c(Nc4ccc(I)cc4F)n(C)c(=O)c(C)c32)c1 [Trametinib] + Cc1nc(-c2cn3c(n2)-c2ccc(-c4cnn(C(C)(C)C(N)=O)c4)cc2OCC3)n(C(C)C)n1 [Taselisib] (first compound max 1 µM, 7x7, partner max 10 µM) | 0.0627 | 0.0304 | 0.316 | 0.229 | 0.158 | 0.0739 | 0.171 | 0.094 | 0.105 | 0.101 | 0.316 | 0.127 | 0.112 | 0.132 | 0.104 | -0.0422 | 0.095 | -0.062 | 0.131 | 0.045
CC1(C)CCC(CN2CCN(c3ccc(C(=O)NS(=O)(=O)c4ccc(NCC5CCOCC5)c([N+](=O)[O-])c4)c(Oc4cnc5[nH]ccc5c4)c3)CC2)=C(c2ccc(Cl)cc2)C1 [Venetoclax] + C1CN(CCC1(C(=O)N[C@@H](CCO)C2=CC=C(C=C2)Cl)N)C3=NC=NC4=C3C=CN4 [Capivasertib] (first compound max 1 µM, 7x7, partner max 3 µM) | 0.0226 | 0.0242 | -0.0238 | -0.0099 | -0.016 | -0.0574 | -0.0639 | -0.0379 | -0.0281 | -0.0732 | -0.0267 | -0.0236 | -0.0125 | -0.0358 | -0.0393 | -0.0238 | -0.0591 | -0.0002 | -0.0171 | -0.0362
CC1(C)CCC(CN2CCN(c3ccc(C(=O)NS(=O)(=O)c4ccc(NCC5CCOCC5)c([N+](=O)[O-])c4)c(Oc4cnc5[nH]ccc5c4)c3)CC2)=C(c2ccc(Cl)cc2)C1 [Venetoclax] + C=CCn1c(=O)c2cnc(Nc3ccc(N4CCN(C)CC4)cc3)nc2n1-c1cccc(C(C)(C)O)n1 [AZD1775] (first compound max 1 µM, partner max 1 µM) | 0.0016 | -0.282 | 0.0496 | -0.0535 | -0.0932 | -0.0444 | -0.0159 | -0.0317 | -0.0205 | -0.0597 | 0.0861 | -0.0667 | -0.0523 | 0.0604 | 0.0002 | 0.0405 | 0.0042 | -0.0252 | 0.0384 | -0.009
CC1(C)CCC(CN2CCN(c3ccc(C(=O)NS(=O)(=O)c4ccc(NCC5CCOCC5)c([N+](=O)[O-])c4)c(Oc4cnc5[nH]ccc5c4)c3)CC2)=C(c2ccc(Cl)cc2)C1 [Venetoclax] + CCN(CCO)CCCOc1ccc2c(Nc3cc(CC(=O)Nc4cccc(F)c4)[nH]n3)ncnc2c1 [AZD2811] (first compound max 1 µM, 7x7, partner max 1 µM) | 0.0498 | 0.0179 | 0.0311 | 0.0484 | -0.0176 | -0.0927 | -0.0051 | -0.0364 | -0.0694 | -0.0565 | 0.0249 | 0.0056 | -0.007 | -0.0204 | 0.0264 | -0.0027 | -0.0315 | 0.0075 | 0.0079 | 0.0163
CC1(C)CCC(CN2CCN(c3ccc(C(=O)NS(=O)(=O)c4ccc(NCC5CCOCC5)c([N+](=O)[O-])c4)c(Oc4cnc5[nH]ccc5c4)c3)CC2)=C(c2ccc(Cl)cc2)C1 [Venetoclax] + CN(C)CCCOc1ccc(-c2ccc3ncc4c(c3c2)n(C2CCOCC2)c(=O)n4C)cn1 [AZD0156] (first compound max 1 µM, 7x7, partner max 1 µM) | -0.0109 | -0.0548 | 0.027 | 0.0229 | -0.0861 | -0.0782 | -0.0146 | -0.0036 | -0.0392 | -0.062 | -0.0122 | -0.0468 | 0.0105 | -0.0333 | -0.0338 | 0.0254 | -0.0146 | 0.0396 | 0.0234 | -0.018
CC1(C)CCC(CN2CCN(c3ccc(C(=O)NS(=O)(=O)c4ccc(NCC5CCOCC5)c([N+](=O)[O-])c4)c(Oc4cnc5[nH]ccc5c4)c3)CC2)=C(c2ccc(Cl)cc2)C1 [Venetoclax] + COc1cc(Nc2ncc3c(n2)-c2ccc(Cl)cc2C(c2c(F)cccc2OC)=NC3)ccc1C(=O)O [Alisertib] (first compound max 1 µM, 7x7, partner max 10 µM) | 0.194 | 0.0765 | 0.0421 | -0.0158 | -0.059 | -0.0694 | -0.0257 | -0.0438 | -0.0528 | -0.0843 | -0.0586 | 0.0279 | -0.0037 | 0.0062 | -0.0215 | 0.01 | 0.0186 | 0.0133 | -0.0147 | -0.0072
CC1(C)CCC(CN2CCN(c3ccc(C(=O)NS(=O)(=O)c4ccc(NCC5CCOCC5)c([N+](=O)[O-])c4)c(Oc4cnc5[nH]ccc5c4)c3)CC2)=C(c2ccc(Cl)cc2)C1 [Venetoclax] + C[C@@H]1COCCN1C2=NC(=NC(=C2)C3(CC3)[S@](=N)(=O)C)C4=C5C=CNC5=NC=C4 [AZD6738] (first compound max 1 µM, 7x7, partner max 10 µM) | -0.0039 | 0.0496 | 0.0075 | -0.0398 | -0.0691 | -0.102 | -0.06 | -0.0285 | -0.0509 | -0.0168 | -0.0355 | -0.0131 | -0.0293 | -0.0445 | -0.0384 | -0.0196 | -0.0224 | -0.0099 | -0.0019 | -0.0084
